Experiments:
[1] = test system: rhythmic bladder voiding contractions; test: Volume-induced rhythmic bladder voiding contractions in anaesthetized rats; assay type: in vivo, rat; conditions: Rattus norvegicus, intravenous; for ED (10 min disappearance of contractions): extrapolated dose inducing 10 min of disappearance of the contractions, anaesthetized rats, read-out: ED10 min; for ED50: extrapolated dose inducing a reduction of the number of contractions >30% in 50% of treated rats, read-out: ED50 (frequency)
[2] = target: T1, post-synaptic 5-HT1A receptor (Rattus norvegicus, UniProt P19327); test: Inhibition of forepaw treading induced by 8-OH-DPAT in rats (post-synaptic antagonism); assay type: in vivo; conditions: for ED50: rat, iv, read-out: Post-synaptic 5-HT1A ID50, heading: Post-synaptic 5-HT1A ID50, dose blocking 50% of forepaw treading induced by 1 mg/kg s.c. 8-OH-DPAT in rats, compound i.v.
T1 construct: from tissue; host or cells: whole animal, male Sprague-Dawley rats
T1 sequence (P19327 1-422): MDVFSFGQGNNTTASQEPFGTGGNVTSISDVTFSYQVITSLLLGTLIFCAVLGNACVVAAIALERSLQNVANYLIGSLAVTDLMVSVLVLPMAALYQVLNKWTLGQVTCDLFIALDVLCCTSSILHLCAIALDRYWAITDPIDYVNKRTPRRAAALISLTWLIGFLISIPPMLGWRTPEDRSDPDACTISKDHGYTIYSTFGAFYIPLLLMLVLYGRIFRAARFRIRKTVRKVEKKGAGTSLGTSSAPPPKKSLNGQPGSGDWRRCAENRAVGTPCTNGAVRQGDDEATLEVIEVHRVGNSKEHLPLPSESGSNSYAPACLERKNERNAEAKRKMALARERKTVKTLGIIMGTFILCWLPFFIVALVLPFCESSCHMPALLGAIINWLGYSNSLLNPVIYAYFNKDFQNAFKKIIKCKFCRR
Procedure: The inhibitory effect of 5-HT1A receptor antagonists on the forepaw treading induced in rats by subcutaneous injection of 8-OH-DPAT was evaluated by the method of Tricklebank (Tricklebank et al., Eur. J.Pharmacol., 117:15, 1985) with minor modifications as described below. Male Sprague-Dawley rats (150-175 g) obtained from Charles River (Italy), were housed in a climate-controlled room and maintained on a 12 h light/dark cycle with free access to food and water. On the day of experiment, rats were placed singly in clear plastic boxes. Rats were treated with reserpine, 1 mg/kg s.c., 18-24 h before the test to deplete intracellular stores of noradrenaline. For evaluation of antagonistic activity, compounds were i.v. administered 16 min before 8-OH-DPAT (1 mg/kg s.c.). Observation sessions of 30 s duration began 3 min after treatment with the agonist and were repeated every 3 min over a period of 15 min. The appearance of the forepaw treading symptom induced by postsynaptic stimulation of the 5HT1A receptors was noted, and its intensity was scored using a ranked intensity scale in which: 0=absent, 1=equivocal, 2=present and 3=intense. Behavioral scores for each treated rat were accumulated over the time course (5 observation periods) and expressed as mean values of 8-10 rats. A linear regression equation was used in order to evaluate ID50 values, defined as the dose of antagonist needed to block 50% of the forepaw treading intensity induced by 1 mg/kg 8-OH-DPAT administered subcutaneously.

ED50 [2]	fold less active than compound of Example 2, post-synaptic model ([2]; forepaw treading model in rats)	SMILES	ED (10 min disappearance of contractions) [1]	ED50 [1]
0.084 mg/kg	–	COC(=O)c1ccccc1N(CCN1CCN(c2ccccc2OC)CC1)C(=O)C1CCCCC1 [Example 18, 1-[N-(2-methoxycarbonylphenyl)-N-cyclohexylcarbonyl-2-aminoethyl]-4-(2-methoxyphenyl)piperazine]	0.101 mg/kg	0.017 mg/kg
0.036 mg/kg	–	COc1ccccc1N1CCN(CCN(C(=O)C2CCCCC2)c2ccccc2[N+](=O)[O-])CC1 [Example 2, 1-[N-(2-nitrophenyl)-N-cyclohexylcarbonyl-2-aminoethyl]-4-(2-methoxyphenyl) piperazine]	0.06 mg/kg	0.009 mg/kg
0.177 mg/kg	–	COc1ccccc1N1CCN(CCN(C(=O)C2CCCCC2)c2ccccc2OC)CC1 [Example 23, 1-[N-(2-methoxyphenyl)-N-cyclohexylcarbonyl-2-aminoethyl]-4-(2-methoxyphenyl)piperazine]	0.093 mg/kg	0.018 mg/kg
0.35 mg/kg	at least 10 fold	COc1ccccc1N1CCN(CCN(C(=O)C2CCCCC2)c2ccccc2)CC1 [Compound A, 1-(N-phenyl-N-cyclohexylcarbonyl-2-aminoethyl)-4-(2-methoxyphenyl)piperazine, reference compound]	0.65 mg/kg	0.033 mg/kg
0.082 mg/kg	–	O=C(C1CCCCC1)N(CCN1CCN(c2cccc3[nH]ccc23)CC1)c1ccccc1[N+](=O)[O-] [Example 13, 1-[N-(2-nitrophenyl)-N-cyclohexylcarbonyl-2-aminoethyl]-4-(4-indolyl)piperazine]	0.266 mg/kg	0.029 mg/kg
